“And” between values parts separate entries of the source, which are not always exact repeats. Equal values may be shown once.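 Step 1: Grow cells in 96-well plates. Step 2: Expose to compound for 48 hours at 5 concentrations. Step 3: Interpolate endpoints linearly; if unreached, use highest concentration. GI50 marks 50% less growth. Definition used: TGI = concentration required for complete inhibition of growth.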
How the values were obtained:
Assay in all cases: DTP human tumour cell line panel, 48 h
SK-OV-3 ovarian = tested on: SK-OV-3 ovarian
HOP-92 NSCLC = tested on: HOP-92 NSCLC
LOX IMVI melanoma = tested on: LOX IMVI melanoma
HS 578T breast = tested on: HS 578T breast
IGROV1 ovarian = tested on: IGROV1 ovarian
HOP-62 NSCLC = tested on: HOP-62 NSCLC
NCI-H23 lung = tested on: NCI-H23 lung
HT29 colon = tested on: HT29 colon
COLO 205 colon = tested on: COLO 205 colon
TK-10 renal = tested on: TK-10 renal
KM12 colon = tested on: KM12 colon
BT-549 breast = tested on: BT-549 breast
CCRF-CEM leukemia = tested on: CCRF-CEM leukemia
M14 melanoma = tested on: M14 melanoma
OVCAR-8 ovarian = tested on: OVCAR-8 ovarian
DU-145 prostate = tested on: DU-145 prostate
SK-MEL-5 melanoma = tested on: SK-MEL-5 melanoma
SF-268 CNS = tested on: SF-268 CNS
OVCAR-5 ovarian = tested on: OVCAR-5 ovarian
SF-295 CNS = tested on: SF-295 CNS
SR leukemia = tested on: SR leukemia
RXF 393 renal = tested on: RXF 393 renal
SN12C renal = tested on: SN12C renal
UACC-257 melanoma = tested on: UACC-257 melanoma
SNB-19 CNS = tested on: SNB-19 CNS
MDA-MB-435 = tested on: MDA-MB-435
DMS 273 small cell lung = tested on: DMS 273 small cell lung
MDA-N = tested on: MDA-N
MCF7 breast = tested on: MCF7 breast
NCI-H460 lung = tested on: NCI-H460 lung
LXFL 529 NSCLC = tested on: LXFL 529 NSCLC
A549 NSCLC = tested on: A549 NSCLC
SNB-75 CNS = tested on: SNB-75 CNS
DLD-1 colon = tested on: DLD-1 colon
786-0 renal = tested on: 786-0 renal
SNB-78 CNS = tested on: SNB-78 CNS
HOP-18 NSCLC = tested on: HOP-18 NSCLC
PC-3 prostate = tested on: PC-3 prostate
OVCAR-3 ovarian = tested on: OVCAR-3 ovarian
NCI-H522 lung = tested on: NCI-H522 lung
KM20L2 colon = tested on: KM20L2 colon
UACC-62 melanoma = tested on: UACC-62 melanoma
OVCAR-4 ovarian = tested on: OVCAR-4 ovarian
UO-31 renal = tested on: UO-31 renal
RPMI-8226 leukemia = tested on: RPMI-8226 leukemia
SW-620 colon = tested on: SW-620 colon
XF 498 CNS = tested on: XF 498 CNS
SF-539 CNS = tested on: SF-539 CNS
K-562 leukemia = tested on: K-562 leukemia
SK-MEL-28 melanoma = tested on: SK-MEL-28 melanoma
DMS 114 small cell lung = tested on: DMS 114 small cell lung
MOLT-4 leukemia = tested on: MOLT-4 leukemia
T-47D breast = tested on: T-47D breast
M19-MEL melanoma = tested on: M19-MEL melanoma
U251 CNS = tested on: U251 CNS
CAKI-1 renal = tested on: CAKI-1 renal
MALME-3M melanoma = tested on: MALME-3M melanoma
ACHN renal = tested on: ACHN renal
SK-MEL-2 melanoma = tested on: SK-MEL-2 melanoma
MDA-MB-231 breast = tested on: MDA-MB-231 breast
EKVX NSCLC = tested on: EKVX NSCLC
NCI-H226 lung = tested on: NCI-H226 lung
HCC-2998 colon = tested on: HCC-2998 colon
HCT-15 colon = tested on: HCT-15 colon
HL-60(TB) leukemia = tested on: HL-60(TB) leukemia
HCT-116 colon = tested on: HCT-116 colon
RXF-631 renal = tested on: RXF-631 renal
A498 renal = tested on: A498 renal

Cc1nc2c(o1)C(=O)c1ccccc1C2=Nc1ccccc1
TGI (SK-OV-3 ovarian): 31.2 µM | TGI (HOP-92 NSCLC): 6.07 µM | TGI (LOX IMVI melanoma): 5.2 µM | TGI (HS 578T breast): 5.38 µM | TGI (IGROV1 ovarian): 20.6 µM | TGI (HOP-62 NSCLC): 6.05 µM | GI50 (NCI-H23 lung): 2.31 µM | TGI (NCI-H23 lung): 6.17 µM and 6.48 µM | TGI (HT29 colon): 33.3 µM | TGI (COLO 205 colon): 27.1 µM | TGI (TK-10 renal): 41.9 µM | TGI (KM12 colon): 14.4 µM | TGI (BT-549 breast): 3.13 µM | GI50 (CCRF-CEM leukemia): 4.61 µM | TGI (CCRF-CEM leukemia): > 65.8 µM | GI50 (M14 melanoma): 1.64 µM | TGI (M14 melanoma): 3 µM and 2.11 µM | GI50 (OVCAR-8 ovarian): 4.16 µM | TGI (OVCAR-8 ovarian): 9.66 µM | TGI (DU-145 prostate): 3.33 µM | GI50 (SK-MEL-5 melanoma): 1.73 µM | TGI (SK-MEL-5 melanoma): 3.1 µM and 2.72 µM | GI50 (SF-268 CNS): 3.11 µM | TGI (SF-268 CNS): > 31.6 µM | TGI (OVCAR-5 ovarian): 11.8 µM | GI50 (SF-295 CNS): 1.95 µM | TGI (SF-295 CNS): 3.88 µM | TGI (SR leukemia): > 93.5 µM | TGI (RXF 393 renal): 3.3 µM | GI50 (SN12C renal): 2.99 µM | TGI (SN12C renal): 7.38 µM and 6.18 µM | TGI (UACC-257 melanoma): 5.46 µM and 4.39 µM | GI50 (SNB-19 CNS): 11 µM | TGI (SNB-19 CNS): 23 µM | TGI (MDA-MB-435): 1.09 µM | TGI (DMS 273 small cell lung): 6.1 µM | TGI (MDA-N): 0.959 µM | TGI (MCF7 breast): 5.47 µM | TGI (NCI-H460 lung): 12.3 µM | TGI (LXFL 529 NSCLC): 12.3 µM | GI50 (A549 NSCLC): 13.2 µM | TGI (A549 NSCLC): 32.3 µM | TGI (SNB-75 CNS): 3.94 µM and 3.81 µM | TGI (DLD-1 colon): 29.2 µM | TGI (786-0 renal): > 55.8 µM | TGI (SNB-78 CNS): 9.13 µM | GI50 (HOP-18 NSCLC): 4.27 µM | TGI (HOP-18 NSCLC): 3.39 µM and 10.1 µM | TGI (PC-3 prostate): 6.51 µM | GI50 (OVCAR-3 ovarian): 2.5 µM | TGI (OVCAR-3 ovarian): 4.52 µM and 8.04 µM | GI50 (NCI-H522 lung): 3.21 µM | TGI (NCI-H522 lung): 7.81 µM and 4.27 µM | TGI (KM20L2 colon): 42 µM | GI50 (UACC-62 melanoma): 2.07 µM | TGI (UACC-62 melanoma): 3.84 µM and 6.7 µM | GI50 (OVCAR-4 ovarian): 2.15 µM | TGI (OVCAR-4 ovarian): 6.5 µM and 5.86 µM | GI50 (UO-31 renal): 3.66 µM | TGI (UO-31 renal): 7.62 µM | GI50 (RPMI-8226 leukemia): 4.43 µM | TGI (RPMI-8226 leukemia): 11.1 µM | GI50 (SW-620 colon): 3.6 µM | TGI (SW-620 colon): 7.86 µM | TGI (XF 498 CNS): 7.69 µM and 6.99 µM | GI50 (SF-539 CNS): 1.96 µM | TGI (SF-539 CNS): 3.66 µM and 5.95 µM | GI50 (K-562 leukemia): 4.28 µM | TGI (K-562 leukemia): > 37.4 µM | TGI (SK-MEL-28 melanoma): 3.91 µM | GI50 (DMS 114 small cell lung): 1.78 µM | TGI (DMS 114 small cell lung): 2.89 µM and 3.69 µM | GI50 (MOLT-4 leukemia): 4.55 µM and 4.44 µM | TGI (MOLT-4 leukemia): 34.5 µM | TGI (T-47D breast): 7.65 µM | GI50 (M19-MEL melanoma): 1.55 µM | TGI (M19-MEL melanoma): 3.24 µM and 2.97 µM | TGI (U251 CNS): 3.12 µM and 3.7 µM | TGI (CAKI-1 renal): 32 µM | GI50 (MALME-3M melanoma): 1.69 µM | TGI (MALME-3M melanoma): 3.06 µM and 2.66 µM | GI50 (ACHN renal): 4.72 µM | TGI (ACHN renal): > 37.7 µM | GI50 (SK-MEL-2 melanoma): 3.62 µM | TGI (SK-MEL-2 melanoma): 2.95 µM | TGI (MDA-MB-231 breast): 18.5 µM | GI50 (EKVX NSCLC): 7.57 µM | TGI (EKVX NSCLC): > 31.6 µM | TGI (NCI-H226 lung): 31.9 µM | TGI (HCC-2998 colon): 28.5 µM | GI50 (HCT-15 colon): 3.17 µM | TGI (HCT-15 colon): 7.63 µM | GI50 (HL-60(TB) leukemia): 3.04 µM | TGI (HL-60(TB) leukemia): 11.6 µM | GI50 (HCT-116 colon): 3.35 µM | TGI (HCT-116 colon): 5.77 µM

Cc1ccc(NC(=O)SCCC(=O)O)cc1
TGI (LOX IMVI melanoma): > 100 µM | TGI (IGROV1 ovarian): > 100 µM | TGI (HOP-62 NSCLC): > 100 µM | TGI (NCI-H23 lung): > 100 µM | TGI (HT29 colon): > 100 µM | TGI (COLO 205 colon): > 100 µM | TGI (TK-10 renal): > 100 µM | TGI (KM12 colon): > 100 µM | TGI (CCRF-CEM leukemia): > 100 µM | TGI (M14 melanoma): > 100 µM | TGI (OVCAR-8 ovarian): > 100 µM | TGI (SF-268 CNS): 94.9 µM | TGI (OVCAR-5 ovarian): > 100 µM | TGI (SF-295 CNS): > 100 µM | TGI (SR leukemia): > 100 µM | TGI (RXF 393 renal): > 100 µM | TGI (SN12C renal): > 100 µM | TGI (UACC-257 melanoma): > 100 µM | TGI (SNB-19 CNS): > 100 µM | TGI (DMS 273 small cell lung): > 100 µM | TGI (NCI-H460 lung): > 100 µM | TGI (LXFL 529 NSCLC): > 100 µM | TGI (RXF-631 renal): > 100 µM | TGI (A549 NSCLC): > 100 µM | TGI (SNB-75 CNS): 66.7 µM | TGI (DLD-1 colon): > 100 µM | TGI (786-0 renal): > 100 µM | TGI (SNB-78 CNS): > 100 µM | TGI (OVCAR-3 ovarian): > 100 µM | TGI (NCI-H522 lung): > 100 µM | TGI (KM20L2 colon): > 100 µM | TGI (A498 renal): > 100 µM | TGI (UACC-62 melanoma): > 100 µM | TGI (OVCAR-4 ovarian): > 100 µM | TGI (UO-31 renal): > 100 µM | TGI (RPMI-8226 leukemia): > 100 µM | TGI (SW-620 colon): > 100 µM | TGI (SF-539 CNS): > 100 µM | TGI (K-562 leukemia): > 100 µM | TGI (SK-MEL-28 melanoma): > 100 µM | TGI (DMS 114 small cell lung): > 100 µM | TGI (MOLT-4 leukemia): > 100 µM | TGI (U251 CNS): > 100 µM | TGI (CAKI-1 renal): > 100 µM | TGI (ACHN renal): > 100 µM | TGI (SK-MEL-2 melanoma): > 100 µM | TGI (EKVX NSCLC): > 100 µM | TGI (NCI-H226 lung): > 100 µM | TGI (HCC-2998 colon): > 100 µM | TGI (HCT-15 colon): > 100 µM | TGI (HL-60(TB) leukemia): > 100 µM | TGI (HCT-116 colon): > 100 µM
